In general, % inhibition refers to the relative decrease from the control value, in per cent.

Strand notation (5' to 3'): a small letter for the sugar, then the base; units joined by * are phosphorothioate-linked, units joined directly phosphodiester-linked; [ ] holds rarer units or linkages, { } end groups; capitals alone tell only the bases. e = 2'-O-(2-methoxyethyl) (MOE); k = constrained ethyl (cEt); [5mC] = 5-methylcytosine; d = 2'-deoxy (DNA)

Results on 19 substances are retold here after patent US11840686B2, “Modulation of prekallikrein (PKK) expression” (Ionis Pharmaceuticals, Inc., priority 2013, dated 2023).

The subject of the data set is human PKK mRNA. The data set is described as follows: Antisense inhibition of human PKK mRNA in HepaRG cells, 1,000 nM, MOE/deoxy/cEt oligonucleotides (Example 3). The data set is classed as cell-based. Particulars: Table 28; HepaRG cells, 1,000 nM antisense oligonucleotide; human PKK mRNA. The method in brief: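 HepaRG cells at 20,000 per well electroporated with 1,000 nM 16-mer MOE/cEt/deoxy gapmers (phosphorothioate, 5-methylcytosine). After about 24 h, PKK mRNA measured by qRT-PCR with primer probe set RTS3454, normalized to RIBOGREEN total RNA. Reported as percent inhibition versus untreated cells.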
As for “548493 (antisense e[5mC]*e[5mC]*kA*d[5mC]*d[5mC]*dG*d[5mC]*dT*dG*d[5mC]*d[5mC]*d[5mC]*dG*k[5mC]*k[5mC]*eA) [compound 548493]”, the “% inhibition” value amounted to 37%.

For “548494 (antisense eT*eG*kT*dG*dA*d[5mC]*d[5mC]*d[5mC]*d[5mC]*d[5mC]*d[5mC]*dA*d[5mC]*k[5mC]*kG*e[5mC]) [compound 548494]”, the “% inhibition” value was 39%.

For “548495 (antisense eT*eT*kG*dT*dG*dA*d[5mC]*d[5mC]*d[5mC]*d[5mC]*d[5mC]*d[5mC]*dA*k[5mC]*k[5mC]*eG) [compound 548495]”, the “% inhibition” value worked out at 55%.

On to “548496 (antisense eA*e[5mC]*kT*dG*dA*dA*d[5mC]*d[5mC]*d[5mC]*d[5mC]*d[5mC]*dT*dT*kA*kG*eG) [compound 548496]”, for which the “% inhibition” value is reported as 0%.

Consider “548497 (antisense e[5mC]*e[5mC]*kT*dT*d[5mC]*dA*dT*dA*d[5mC]*d[5mC]*d[5mC]*d[5mC]*dT*k[5mC]*kA*e[5mC]) [compound 548497]”, for which the “% inhibition” value turned out to be 26%.

For “548498 (antisense e[5mC]*e[5mC]*kG*dA*dT*dA*dA*d[5mC]*dA*dG*dA*d[5mC]*d[5mC]*kG*kG*e[5mC]) [compound 548498]”, the “% inhibition” value was 71%.

For the substance “548499 (antisense eA*eT*kA*d[5mC]*d[5mC]*d[5mC]*dG*dG*dA*dG*dT*d[5mC]*dA*kG*kG*eA) [compound 548499]”, the “% inhibition” value is 56%.

Take “548500 (antisense eA*eT*kT*dG*d[5mC]*dT*d[5mC]*dA*dG*dG*d[5mC]*d[5mC]*d[5mC]*k[5mC]*k[5mC]*eT) [compound 548500]”: the “% inhibition” value worked out at 29%.

“548501 (antisense e[5mC]*eA*kA*dG*d[5mC]*d[5mC]*dA*d[5mC]*dT*dA*dA*d[5mC]*d[5mC]*k[5mC]*kA*e[5mC]) [compound 548501]”: the “% inhibition” value was found to be 33%.

On to “548502 (antisense eA*eA*kT*dT*d[5mC]*dT*dT*dG*dG*dA*d[5mC]*d[5mC]*dA*kA*kG*eG) [compound 548502]”, for which the “% inhibition” value was determined as 25%.

Turning to “548503 (antisense e[5mC]*e[5mC]*kA*dT*d[5mC]*dT*dA*d[5mC]*dT*d[5mC]*d[5mC]*d[5mC]*d[5mC]*k[5mC]*kA*eT) [compound 548503]”, the “% inhibition” value was 9%.

In the case of “548504 (antisense eG*e[5mC]*kA*dG*d[5mC]*dG*dA*dG*d[5mC]*dA*dT*dT*d[5mC]*k[5mC]*kA*eA) [compound 548504]”, the “% inhibition” value is 28%.

Consider “548505 (antisense eG*eG*kA*d[5mC]*dA*dA*dT*dG*d[5mC]*d[5mC]*dT*dA*dT*kG*k[5mC]*eT) [compound 548505]”, for which the “% inhibition” value came to 21%.

For the substance “548506 (antisense eG*eA*kA*dG*d[5mC]*d[5mC]*dA*dT*dT*d[5mC]*dA*d[5mC]*dT*kG*k[5mC]*eA) [compound 548506]”, the “% inhibition” value came out at 32%.

Take “548507 (antisense eA*eA*kA*d[5mC]*dT*d[5mC]*d[5mC]*dT*d[5mC]*dT*d[5mC]*dA*dA*kG*kG*e[5mC]) [compound 548507]”: the “% inhibition” value turned out to be 53%.

Take “548508 (antisense eG*e[5mC]*kA*d[5mC]*d[5mC]*dA*d[5mC]*d[5mC]*dA*dT*dG*d[5mC]*dG*kG*kT*eT) [compound 548508]”: the “% inhibition” value amounted to 43%.

In the case of “548509 (antisense eT*eG*k[5mC]*dA*dG*dG*dG*d[5mC]*dT*dG*d[5mC]*dG*d[5mC]*kA*kG*eT) [compound 548509]”, the “% inhibition” value is given as 41%.

For “548510 (antisense eT*eT*kA*dG*d[5mC]*d[5mC]*dA*d[5mC]*dT*d[5mC]*d[5mC]*dT*d[5mC]*kT*kT*eG) [compound 548510]”, the “% inhibition” value was determined as 30%.

Regarding “548511 (antisense eA*eG*k[5mC]*dT*dA*dG*d[5mC]*dT*dG*dA*d[5mC]*d[5mC]*d[5mC]*k[5mC]*kA*eA) [compound 548511]”, the “% inhibition” value turned out to be 16%.
